Reference: patent publication US20030003139A1 (Schering AG, priority 2000, published 2003)

Legend:
[1] = in-vitro-diffusion test, Franz-flow cell, transdermal in-vitro skin flow from patches; format: in vitro ADME, mice; settings: for transdermal in-vitro skin flow / transdermal in-vitro skin flow, MW (mean value): gestodene patch 1% by weight; for transdermal in-vitro skin flow, MW (mean value): mean of cells
Source text: The measurements were made with the following in-vitro-diffusion test. A tempered Franz-flow cell is divided into a donor compartment and an acceptor compartment by a 2 cm^2 piece of excised skin from nude mice, whereby the horny layer faces toward the donor. A 3% or 5% solution of hydroxypropyl-β-cyclodextrin in buffer is pumped with the aid of a pneumatic pump from a tempered storage container through the acceptor compartment and collected with the aid of a fraction collector in glass vials that are exchanged at specific time intervals.
The active ingredient-containing patches are bonded to the donor side.
The content of active ingredients is determined in the individual fractions by means of HPLC/UV or GC/FID.
The transdermal in-vitro skin flow is indicated in ng/cm^2/h: […]

[2] = formulations for transdermal systems; cited from earlier work
[3] = solubility (crystal-free loadability) of the active ingredient in polyacrylate matrix-TDS according to Example 1; format: physicochemical; settings: for content up to which active ingredient is present in dissolved form in matrix-TDS: matrix-TDS according to Example 1
Method: Hydroxytrienedione is weighed in a beaker and with 25 g of a 30% solution of Kollidon^(R) VA 64 in 2-propanol. 10 ml of 2-propanol is added. The mixture that is obtained is stirred for 5 minutes. The mixture is fed into the adhesive solution (Gelva 7881) that is introduced. The following table indicates the adhesive dry mass that is contained in the introduced volume of the adhesive solution. Then, it is stirred for another 0.5 hour. After polarization-microscopic checking to ensure the absence of crystals, the mixture that is obtained is coated by means of a 300 μm doctor blade on a liner that consists of fluoropolymer-coated polyester (Scotchpak^(R) 1022 Release Liner). It is dried for 20 minutes at 70° C. and then laminated with a backing that consists of a co-laminate of PVC-PVDS with polyester (Saran-Hytrel^(R) backing). Round patches with a surface area of 10 cm^2 are punched from the three-layer laminate that is obtained and welded into a sealed bag that is made of aluminum compound foil.
A matrix-TDS, in which the active ingredient is present in dissolved form, can be produced according to Example 1 with gestodene only up to about 1% (m/m). Moreover, it results in recrystallization phenomena of the gestodene. The skin flow cannot increase decisively.

C#C[C@]1(O)C=C[C@H]2[C@@H]3CCC4=CC(=O)CC[C@@H]4[C@H]3CC[C@@]21CC [gestodene]
transdermal in-vitro skin flow ([1]; 1 h, diffusion cell 1): 0 ng/cm^2/h
transdermal in-vitro skin flow ([1]; 1 h, diffusion cell 2): 0 ng/cm^2/h
transdermal in-vitro skin flow ([1]; 1 h, diffusion cell 3): 0 ng/cm^2/h
transdermal in-vitro skin flow ([1]; 1 h, diffusion cell 4): 0 ng/cm^2/h
transdermal in-vitro skin flow, MW (mean value) ([1]; 1 h): 0 ng/cm^2/h
transdermal in-vitro skin flow ([1]; 3 h, diffusion cell 1): 1 ng/cm^2/h
transdermal in-vitro skin flow ([1]; 3 h, diffusion cell 2): 4 ng/cm^2/h
transdermal in-vitro skin flow ([1]; 3 h, diffusion cell 3): 2 ng/cm^2/h
transdermal in-vitro skin flow ([1]; 3 h, diffusion cell 4): 5 ng/cm^2/h
transdermal in-vitro skin flow, MW (mean value) ([1]; 3 h): 3 ng/cm^2/h
transdermal in-vitro skin flow ([1]; 5 h, diffusion cell 1): 5 ng/cm^2/h
transdermal in-vitro skin flow ([1]; 5 h, diffusion cell 2): 31 ng/cm^2/h
transdermal in-vitro skin flow ([1]; 5 h, diffusion cell 3): 14 ng/cm^2/h
transdermal in-vitro skin flow ([1]; 5 h, diffusion cell 4): 18 ng/cm^2/h
transdermal in-vitro skin flow, MW (mean value) ([1]; 5 h): 17 ng/cm^2/h
transdermal in-vitro skin flow ([1]; 10 h, diffusion cell 1): 39 ng/cm^2/h
transdermal in-vitro skin flow ([1]; 10 h, diffusion cell 2): 72 ng/cm^2/h
transdermal in-vitro skin flow ([1]; 10 h, diffusion cell 3): 80 ng/cm^2/h
transdermal in-vitro skin flow ([1]; 10 h, diffusion cell 4): 58 ng/cm^2/h
transdermal in-vitro skin flow, MW (mean value) ([1]; 10 h): 62 ng/cm^2/h
transdermal in-vitro skin flow ([1]; 18 h, diffusion cell 1): 77 ng/cm^2/h
transdermal in-vitro skin flow ([1]; 18 h, diffusion cell 2): 46 ng/cm^2/h
transdermal in-vitro skin flow ([1]; 18 h, diffusion cell 3): 110 ng/cm^2/h
transdermal in-vitro skin flow ([1]; 18 h, diffusion cell 4): 36 ng/cm^2/h
transdermal in-vitro skin flow, MW (mean value) ([1]; 18 h): 67 ng/cm^2/h
transdermal in-vitro skin flow ([1]; 26 h, diffusion cell 1): 120 ng/cm^2/h
transdermal in-vitro skin flow ([1]; 26 h, diffusion cell 2): 45 ng/cm^2/h
transdermal in-vitro skin flow ([1]; 26 h, diffusion cell 3): 111 ng/cm^2/h
transdermal in-vitro skin flow ([1]; 26 h, diffusion cell 4): 33 ng/cm^2/h
transdermal in-vitro skin flow, MW (mean value) ([1]; 26 h): 77 ng/cm^2/h
transdermal in-vitro skin flow ([1]; 34 h, diffusion cell 1): 50 ng/cm^2/h
transdermal in-vitro skin flow ([1]; 34 h, diffusion cell 2): 39 ng/cm^2/h
transdermal in-vitro skin flow ([1]; 34 h, diffusion cell 3): 83 ng/cm^2/h
transdermal in-vitro skin flow ([1]; 34 h, diffusion cell 4): 31 ng/cm^2/h
transdermal in-vitro skin flow, MW (mean value) ([1]; 34 h): 51 ng/cm^2/h
transdermal in-vitro skin flow ([1]; 42 h, diffusion cell 1): 47 ng/cm^2/h
transdermal in-vitro skin flow ([1]; 42 h, diffusion cell 2): 33 ng/cm^2/h
transdermal in-vitro skin flow ([1]; 42 h, diffusion cell 3): 74 ng/cm^2/h
transdermal in-vitro skin flow ([1]; 42 h, diffusion cell 4): 25 ng/cm^2/h
transdermal in-vitro skin flow, MW (mean value) ([1]; 42 h): 45 ng/cm^2/h
transdermal in-vitro skin flow ([1]; 50 h, diffusion cell 1): 37 ng/cm^2/h
transdermal in-vitro skin flow ([1]; 50 h, diffusion cell 2): 27 ng/cm^2/h
transdermal in-vitro skin flow ([1]; 50 h, diffusion cell 3): 44 ng/cm^2/h
transdermal in-vitro skin flow ([1]; 50 h, diffusion cell 4): 22 ng/cm^2/h
transdermal in-vitro skin flow, MW (mean value) ([1]; 50 h): 32 ng/cm^2/h
solubility in the matrices used [2]: about 1%
content up to which active ingredient is present in dissolved form in matrix-TDS [3]: about 1 % (m/m)

C[C@H](O)C(=O)[C@]12C=C[C@@]3(CC1)C1CCC4=CC(=O)CCC4=C1CC[C@]23C (stereo partly drawn) [hydroxytrienedione, (21S)-21-hydroxy-21-methyl-14,17-ethano-19-norpregna-4,9,15-triene-3,20-dione]
skin flows for 1%-matrix-TDS, hydroxytrienedione versus gestodene ([1]; 1%-matrix-TDS): comparable
content up to which active ingredient is present in dissolved form in matrix-TDS [3]: about 20 % (m/m)
solubility in transdermal systems ([3]; matrix-transdermal systems based on polyacrylate adhesive): about 20 % by weight
